The assay addresses T1, F508del CFTR (Homo sapiens, UniProt P13569, DEL508-508).
T1 construct: Primary CF airway epithelial cells were obtained from the UNC Cystic Fibrosis Tissue Procurement and Cell Culture Core; host or cells: primary CF airway epithelial cells
Kind of assay: Equivalent current assay in primary CF airway epithelial cells (Corrector Activity, NAUC normalized to 3 μM VX809). The assay is classed as cell-based. As to conditions: NAUC as % of positive control (VX-809). The procedure, abridged:
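Differentiated primary CF airway cells treated basolaterally 24 h at 37° C with compound (0.1% DMSO). Equivalent current recorded after 5 μM benzamil, stimulation with 10 μM forskolin plus 1 μM VX-770 or 3 μM FDL176, and block by 20 μM CFTR-172; vehicle-subtracted AUC normalized to 3 μM VX809; EC50 from sigmoid fit, Hill slope 1.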
T1 sequence (P13569 with tags, fused parts or gaps DEL508-508): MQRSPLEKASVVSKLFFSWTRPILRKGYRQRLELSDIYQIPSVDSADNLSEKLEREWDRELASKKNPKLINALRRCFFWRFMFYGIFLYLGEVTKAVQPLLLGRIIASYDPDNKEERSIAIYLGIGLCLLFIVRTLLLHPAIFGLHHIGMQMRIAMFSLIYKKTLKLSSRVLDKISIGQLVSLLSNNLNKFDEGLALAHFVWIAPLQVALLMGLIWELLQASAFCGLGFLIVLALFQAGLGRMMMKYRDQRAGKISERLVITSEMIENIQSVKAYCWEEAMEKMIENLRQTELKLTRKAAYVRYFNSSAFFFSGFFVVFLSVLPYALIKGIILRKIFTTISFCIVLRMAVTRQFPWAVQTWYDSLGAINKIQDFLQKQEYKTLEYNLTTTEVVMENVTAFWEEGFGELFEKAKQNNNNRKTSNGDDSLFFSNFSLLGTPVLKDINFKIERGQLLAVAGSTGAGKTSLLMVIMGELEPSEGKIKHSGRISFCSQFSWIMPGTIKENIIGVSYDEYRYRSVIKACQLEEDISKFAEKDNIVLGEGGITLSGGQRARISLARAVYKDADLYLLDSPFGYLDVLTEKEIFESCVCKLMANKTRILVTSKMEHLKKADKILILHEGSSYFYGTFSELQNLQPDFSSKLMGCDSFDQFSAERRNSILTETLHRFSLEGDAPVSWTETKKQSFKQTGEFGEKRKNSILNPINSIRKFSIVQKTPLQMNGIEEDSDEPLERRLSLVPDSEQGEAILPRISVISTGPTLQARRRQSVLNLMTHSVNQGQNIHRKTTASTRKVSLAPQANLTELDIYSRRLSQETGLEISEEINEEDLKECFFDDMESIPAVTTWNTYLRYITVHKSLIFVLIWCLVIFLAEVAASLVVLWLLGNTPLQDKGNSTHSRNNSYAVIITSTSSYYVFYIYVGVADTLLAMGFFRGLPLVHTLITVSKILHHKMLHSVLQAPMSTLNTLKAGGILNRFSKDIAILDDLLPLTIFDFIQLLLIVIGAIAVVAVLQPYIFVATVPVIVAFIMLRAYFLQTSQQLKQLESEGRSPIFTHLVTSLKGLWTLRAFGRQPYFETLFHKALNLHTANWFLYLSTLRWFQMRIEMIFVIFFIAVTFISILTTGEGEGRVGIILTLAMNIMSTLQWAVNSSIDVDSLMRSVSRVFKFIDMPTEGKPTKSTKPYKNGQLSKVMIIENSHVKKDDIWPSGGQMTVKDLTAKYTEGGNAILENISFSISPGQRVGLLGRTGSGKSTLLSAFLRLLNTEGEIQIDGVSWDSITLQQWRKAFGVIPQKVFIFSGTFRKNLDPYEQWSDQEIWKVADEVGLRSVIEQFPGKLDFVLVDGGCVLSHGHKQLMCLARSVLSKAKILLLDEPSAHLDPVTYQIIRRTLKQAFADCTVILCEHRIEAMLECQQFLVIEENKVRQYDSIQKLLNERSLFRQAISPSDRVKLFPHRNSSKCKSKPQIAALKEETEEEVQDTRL
Regarding `CCN(C(=O)Cn1nc(-c2cccc(Cl)c2)c2oc(C(=O)NC(C)(C)C)cc2c1=O)c1ccc2c(c1)OC(F)(F)O2` [Example 120], the “Corr Activity (NAUC)” value was “+++ (NAUC>70% of positive control)”.
The same measure for `CCN(C(=O)Cn1nc(-c2cc(F)cc(OC)c2)c2oc(C3CCC3)cc2c1=O)c1ccc2c(c1)OC(F)(F)O2` [Example 241]: “+++ (NAUC>70% of positive control)”; for `Cc1cc2c(=O)n(CC(=O)N(C)c3ccc4c(c3)OC(F)(F)O4)nc(-c3cc(Cl)cc(Cl)c3)c2o1` [Example 70]: “+++ (NAUC>70% of positive control)”.
The same measure for `CN(C(=O)Cn1nc(-c2cccc(C#N)c2)c2oc(C(C)(C)O)cc2c1=O)c1ccc2c(c1)OC(F)(F)O2` [Example 204]: “+++ (NAUC>70% of positive control)”; for `CCN(C(=O)Cn1nc(-c2cc(C#N)cc(C(C)(C)C)c2)c2[nH]cnc2c1=O)c1ccc2c(c1)OC(F)(F)O2` [Example 245]: “+++ (NAUC>70% of positive control)”; for `CCN(C(=O)Cn1nc(-c2ccc3ccccc3c2)c2[nH]cnc2c1=O)c1ccc2c(c1)OC(F)(F)O2` [Example 292]: “+ (NAUC<40% of positive control)”.
Next, `CN(C(=O)Cn1nc(-c2cccc(OC(C)(C)C)c2)c2oc(C(=O)NC(C)(C)C)cc2c1=O)c1ccc2c(c1)OC(F)(F)O2` [Example 123]: “+ (NAUC<40% of positive control)”; `O=C(Cn1nc(-c2cc(F)cc(Cl)c2)c2[nH]cnc2c1=O)N(c1ccc2c(c1)OC(F)(F)O2)C1CC1` [Example 378]: “++ (NAUC 70-40% of positive control)”; `CCN(C(=O)Cn1nc(-c2ccc3c(c2)OCCO3)c2[nH]cnc2c1=O)c1ccc2c(c1)OC(F)(F)O2` [Example 294]: “+ (NAUC<40% of positive control)”.
Turning to `CCN(C(=O)Cn1nc(-c2cccc(OC(F)(F)F)c2)c2occc2c1=O)c1ccc2c(c1)OC(F)(F)O2` [Example 91], the “Corr Activity (NAUC)” value is given as “+++ (NAUC>70% of positive control)”.
Next, `N#Cc1cc(-c2nn(CC(=O)N(c3ccc4c(c3)OC(F)(F)O4)C3CC3)c(=O)c3nc[nH]c23)ccc1N1CCC(F)(F)C1` [Example 489]: “+++ (NAUC>70% of positive control)”; `COc1cc(C#N)cc(-c2nn(CC(=O)N(c3ccc4c(c3)OC(F)(F)O4)C3CC3)c(=O)c3nc[nH]c23)c1` [Example 409]: “++ (NAUC 70-40% of positive control)”.
Regarding `Cc1cc2c(cc1N(C)C(=O)Cn1nc(-c3cc(Cl)cc(C#N)c3)c3oc(C(F)F)cc3c1=O)OC(F)(F)O2` [Example 193], the “Corr Activity (NAUC)” value was “+++ (NAUC>70% of positive control)”.
Next, `COc1cc(Cl)cc(-c2nn(CC(=O)N(c3ccc4c(c3)OC(F)(F)O4)C3CC3)c(=O)c3nc[nH]c23)c1` [Example 379]: “++ (NAUC 70-40% of positive control)”.
Next, `CCN(C(=O)Cn1nc(-c2cccc(Cl)c2)c2sccc2c1=O)c1ccc2c(c1)OC(F)(F)O2` [Example 5]: “+++ (NAUC>70% of positive control)”.
Consider `CN1C(=O)Cc2ccc(-c3nn(CC(=O)N(c4ccc5c(c4)OC(F)(F)O5)C4CC4)c(=O)c4nc[nH]c34)cc21` [Example 432], for which the “Corr Activity (NAUC)” value is listed as “+ (NAUC<40% of positive control)”.
The same measure for `CCN(C(=O)Cn1nc(-c2cccc(C#N)c2)c2[nH]cnc2c1=O)c1ccc2c(c1F)OC(F)(F)O2` [Example 250]: “+++ (NAUC>70% of positive control)”; for `CCN(C(=O)Cn1nc(-c2cc(Cl)cc(OCCOC)c2)c2[nH]cnc2c1=O)c1ccc2c(c1)OC(F)(F)O2` [Example 276]: “+++ (NAUC>70% of positive control)”.
The same measure for `CCN(C(=O)Cn1nc(-c2cc(Cl)cc(C#N)c2)c2occc2c1=O)c1ccc2c(c1C)OC(F)(F)O2` [Example 172]: “+++ (NAUC>70% of positive control)”; for `CN(C(=O)Cn1nc(-c2cccc(C#N)c2)c2oc(CN3CCCC3)cc2c1=O)c1ccc2c(c1)OC(F)(F)O2` [Example 200]: “++ (NAUC 70-40% of positive control)”.
Turning to `Cc1nc2ccc(N(C)C(=O)Cn3nc(-c4cccc(C#N)c4)c4oc(C(=O)NC(C)C)cc4c3=O)cc2o1` [Example 156], the “Corr Activity (NAUC)” value is “++ (NAUC 70-40% of positive control)”.
The same measure for `CCN(C(=O)Cn1nc(-c2cccc(Cl)c2)c2oc(C3CC3)cc2c1=O)c1ccc2c(c1)OC(F)(F)O2` [Example 230]: “+++ (NAUC>70% of positive control)”; for `Cc1nc2ccc(N(C)C(=O)Cn3nc(-c4cccc(F)c4)c4sccc4c3=O)cc2o1` [Example 1, 2-(7-(3-Fluorophenyl)-4-oxothieno[2,3-d]pyridazin-5(4H)-yl)-N-methyl-N-(2-methylbenzo[d]oxazol-6-yl)acetamide]: “+++ (NAUC>70% of positive control)”.
As for `CCN(C(=O)Cn1nc(-c2cc(Cl)cc(C#N)c2)c2oc(C(F)F)cc2c1=O)c1ccc2c(c1)OC(F)(F)O2` [Example 192], the “Corr Activity (NAUC)” value is reported as “+++ (NAUC>70% of positive control)”.
In the case of `CCN(C(=O)Cn1nc(-c2ccc(-c3ccccc3)c(F)c2)c2[nH]cnc2c1=O)c1ccc2c(c1)OC(F)(F)O2` [Example 319], the “Corr Activity (NAUC)” value is listed as “+ (NAUC<40% of positive control)”.
The same measure for `CCN(C(=O)Cn1nc(-c2cccc(C#N)c2)c2occc2c1=O)c1ccc(OC(F)(F)F)cc1` [Example 62]: “+ (NAUC<40% of positive control)”; for `CCN(C(=O)Cn1nc(-c2cc(Cl)cc(Cl)c2)c2[nH]cnc2c1=O)c1ccc2c(c1)OC(F)(F)O2` [Example 254]: “+++ (NAUC>70% of positive control)”.
Next, `CN(C(=O)Cn1nc(-c2cc(F)cc(C#N)c2)c2[nH]cnc2c1=O)c1ccc2c(c1)OC(F)(F)O2` [Example 216, 2-(7-(3-cyano-5-fluorophenyl)-4-oxo-1,4-dihydro-5H-imidazo[4,5-d]pyridazin-5-yl)-N-(2,2-difluorobenzo[d][1,3]dioxol-5-yl)-N-methylacetamide]: “+++ (NAUC>70% of positive control)”.
Next, `CCN(C(=O)Cn1nc(-c2cccc(OC(C)(C)C)c2)c2occc2c1=O)c1ccc2c(c1)OC(F)(F)O2` [Example 89]: “++ (NAUC 70-40% of positive control)”.
Turning to `CCN(C(=O)Cn1nc(-c2cc(F)cc(C#N)c2)c2occ(C(F)(F)F)c2c1=O)c1cc2c(cc1C)OC(F)(F)O2` [Example 179], the “Corr Activity (NAUC)” value was “++ (NAUC 70-40% of positive control)”.
Next, `CCN(C(=O)Cn1nc(-c2ccc(C#N)c(C(F)(F)F)c2)c2[nH]cnc2c1=O)c1ccc2c(c1)OC(F)(F)O2` [Example 351]: “+ (NAUC<40% of positive control)”; `CCN(C(=O)Cn1nc(-c2cc(Cl)cc(C#N)c2)c2[nH]cnc2c1=O)c1ccc2c(c1)OC(F)(F)O2` [Example 244]: “+++ (NAUC>70% of positive control)”.
The same measure for `CCN(C(=O)Cn1nc(-c2ccc3c(c2)ncn3-c2ccccc2)c2[nH]cnc2c1=O)c1ccc2c(c1)OC(F)(F)O2` [Example 313]: “++ (NAUC 70-40% of positive control)”; for `CCN(C(=O)Cn1nc(-c2cccc(C#N)c2)c2cn[nH]c2c1=O)c1ccc2c(c1)OC(F)(F)O2` [Example 493, 2-(4-(3-cyanophenyl)-7-oxo-1,7-dihydro-6H-pyrazolo[3,4-d]pyridazin-6-yl)-N-(2,2-difluorobenzo[d][1,3]dioxol-5-yl)-N-ethylacetamide]: “++ (NAUC 70-40% of positive control)”; for `CCN(C(=O)Cn1nc(-c2ccc(CC#N)c(OC)c2)c2[nH]cnc2c1=O)c1ccc2c(c1)OC(F)(F)O2` [Example 357]: “+ (NAUC<40% of positive control)”.
Next, `CCN(C(=O)Cn1nc(-c2cc(F)cc(F)c2)c2oc(C3CCC3)cc2c1=O)c1ccc2c(c1)OC(F)(F)O2` [Example 235]: “++ (NAUC 70-40% of positive control)”; `CCN(C(=O)Cn1nc(-c2ccc3c(ccn3Cc3ccccc3)c2)c2[nH]cnc2c1=O)c1ccc2c(c1)OC(F)(F)O2` [Example 296]: “+ (NAUC<40% of positive control)”; `CCN(C(=O)Cn1nc(-c2cccc(Cl)c2)c2oc(C(F)F)cc2c1=O)c1ccc2c(c1)OC(F)(F)O2` [Example 186]: “+++ (NAUC>70% of positive control)”.
Consider `Cc1nc2ccc(N(C)C(=O)Cn3nc(-c4cccc(F)c4)c4oc(C(=O)NC(C)C)cc4c3=O)cc2o1` [Example 155], for which the “Corr Activity (NAUC)” value is “++ (NAUC 70-40% of positive control)”.
The same measure for `CCN(C(=O)Cn1nc(-c2ccc(C)c(CO)c2)c2[nH]cnc2c1=O)c1ccc2c(c1)OC(F)(F)O2` [Example 337]: “+ (NAUC<40% of positive control)”; for `CN(C(=O)Cn1nc(-c2cc(C#N)cc(C(F)F)c2)c2oc(C(=O)NC(C)(C)C)cc2c1=O)c1ccc2c(c1)OC(F)(F)O2` [Example 146]: “+++ (NAUC>70% of positive control)”.
Next, `O=C(Cn1nc(-c2cc(Cl)cc(C(F)(F)F)c2)c2[nH]cnc2c1=O)N(c1ccc2c(c1)OC(F)(F)O2)C1CC1` [Example 401]: “++ (NAUC 70-40% of positive control)”.
Next, `N#Cc1cc(OC(F)(F)F)cc(-c2nn(CC(=O)N(c3ccc4c(c3)OC(F)(F)O4)C3CC3)c(=O)c3nc[nH]c23)c1` [Example 408]: “++ (NAUC 70-40% of positive control)”.
For `O=C1Cc2ccc(-c3nn(CC(=O)N(c4ccc5c(c4)OC(F)(F)O5)C4CC4)c(=O)c4nc[nH]c34)cc2N1` [Example 426], the “Corr Activity (NAUC)” value is on record as “+ (NAUC<40% of positive control)”.
Next, `CCN(C(=O)Cn1nc(-c2cccc(C#N)c2)c2oc(C(=O)NC(C)(C)C)cc2c1=O)c1ccc2c(c1F)OC(F)(F)O2` [Example 147]: “+++ (NAUC>70% of positive control)”; `CCN(C(=O)Cn1nc(-c2cc(F)cc(C#N)c2)c2oc(C(F)F)cc2c1=O)c1ccc2c(c1C)OC(F)(F)O2` [Example 195]: “++ (NAUC 70-40% of positive control)”.

Source of the values: patent US20220402925A1, “COMPOUNDS AND METHODS FOR THE TREATMENT OF CYSTIC FIBROSIS” (Flatley Discovery Lab, LLC, priority 2019, published 2022).
